Columns and labels:
[1] = target: T1, phosphorylation at Ser935 on wild type LRRK2 overexpressed in recombinant HEK-293T cells (Homo sapiens, UniProt Q5S007); assay: pS935 LRRK2 Cell Assay (HTRF); type: cell-based; details: LRRK2 inhibition; pS935 LRRK2 in transfected HEK293T cells, 2 hours compound incubation
T1 construct: host or cells: HEK293T, transient transfection
Description: The following protocol describes an in-vitro method for measuring phosphorylation at Ser935 on wild type LRRK2 overexpressed in recombinant HEK-293T cells. The method is based on HTRF technology, which combines Fluorescence Resonance Energy Transfer (FRET) with Time-Resolved measurement (TR). Phospho-LRRK2 (Ser935) is detected in a sandwich assay format using two different specific antibodies, one labelled with Eu^3+-Cryptate (donor) and the second with d2 (acceptor). When the fluorophores are in close proximity, excitation of the donor with a light source (flash lamp) stimulates FRET to the acceptor, which in turn fluoresces at a specific wavelength (665 nm). The fluorescence emission at 615 nm from the donor is also measured to allow ratiometric reduction of data. The specific signal is proportional to phospho-LRRK2 (Ser935).
Plasmid transient transfection: DMEM medium, FBS, DPBS, Trans-IT, OPTI-MEM reagents were allowed to warm to room temperature. HEK293T cells were cultured in DMEM+10% FBS complete medium in T150 flasks till around 80% confluency before transfection. Then cells were washed with 10 mL PBS and detached with 3 mL 0.25% typinsin. 30×10E6 HEK293T cells were seeded in DMEM+10% FBS complete medium to a 15 cm dish.
DNA, TransIT-LT1, OPTI-MEM complex were prepared: […] OPTI-MEM was added to a 15 mL cone tube, then […] plasmid was added to OPTI-MEM and mixed, followed by addition of 60 L TransIT-LT1 to the plasmid OPTI-MEM mixture and mixing. The resulting mixture was incubated for 15 minutes.
The above plasmid, DNA and OPTI-MEM mixture was added dropwise to the 15 cm dish, ensuring the drops were evenly distributed. The culture dish was gently rocked back and forth and from left to right to evenly distribute the complex. The transfected dish was incubated for 24 hours at 37° C., and 5% CO2.
Transfected HEK293T was collected in the 15 cm dish. Media was aspirated from tissue culture dish, and washed by dispensing 10 mL 1×DPBS into 15 cm dish. 1×DPBS was aspirated and 3 mL trypsin was dispensed to 15 cm dish. The dish was incubated with trypsin at room temperature for 3 min until the cells were detached. 10 mL of DMEM+10% FBS medium were added to 15 cm dish and triturated to ensure homogenous cell suspensions.
Homogenous cell suspensions were transferred to a 50 mL tube, and centrifuged for 5 minutes at 1,000 rmp/min. The supernatant was aspirated and resuspended with 20 mL complete medium. 1 mL of cell suspension was transferred for cell counting. The cell suspension was diluted to 2×10E5 cells/ml. 50 L cell suspensions were added to a 384-well plate. The plate was quick spun at 800 rpm for 1 minute, then incubate overnight at 37° C., 5% CO2.
Compound dispensing: compound was diluted (10 mM DMSO stock solution) and added to assay plate (top concentration: 10 μM, 3 fold serial dilution, 9 doses) with duplicates by Tecan liquid handler. The DMSO concentration of each well was normalized to 0.2%. Plates were quick spun at 1,000 rpm for 1 minute. Plates were incubated at 37° C., 5% CO2 for 2 hours.
1× lysis buffer solution supplemented with blocking reagent was prepared (e.g. 1 mL lysis buffer 4×+3 mL water+40 L stock blocking reagent 100×). Antibodies working solution was prepared by diluting 40-fold d2 and Cryptate antibodies with detection buffer (e.g. 1520 L detection buffer+40 L d2-antibody stock solution+[…] Cryptate-antibody stock solution).
After 2 hours incubation, cell plates were taken out from the incubator. Medium was removed by plate washer, then 16 µL of supplemented lysis buffer was added 1× to each well and incubated for 30 minutes at room temperature under shaking (800 rpm/min). 4 µL of antibodies working solution was added to each well, covered with a top seal and incubated overnight in 23° C. incubator.
HTRF signal was read (665 nm and 615 nm) on Wallac 2104 EnVision® multilabel reader. Data were analyzed by XL fit software.

[2] = target: LRRK2 wild type enzyme (Homo sapiens, UniProt Q5S007); assay: LRRK2 biochemical assay (LanthaScreen TR-FRET, LRRKtide substrate); details: LRRK2 inhibition; 3 nM LRRK2, 400 nM LRRKtide, 25 μM ATP, 120 min, 23° C.
LRRK2 wild type enzyme, sequence (Q5S007 whole entry): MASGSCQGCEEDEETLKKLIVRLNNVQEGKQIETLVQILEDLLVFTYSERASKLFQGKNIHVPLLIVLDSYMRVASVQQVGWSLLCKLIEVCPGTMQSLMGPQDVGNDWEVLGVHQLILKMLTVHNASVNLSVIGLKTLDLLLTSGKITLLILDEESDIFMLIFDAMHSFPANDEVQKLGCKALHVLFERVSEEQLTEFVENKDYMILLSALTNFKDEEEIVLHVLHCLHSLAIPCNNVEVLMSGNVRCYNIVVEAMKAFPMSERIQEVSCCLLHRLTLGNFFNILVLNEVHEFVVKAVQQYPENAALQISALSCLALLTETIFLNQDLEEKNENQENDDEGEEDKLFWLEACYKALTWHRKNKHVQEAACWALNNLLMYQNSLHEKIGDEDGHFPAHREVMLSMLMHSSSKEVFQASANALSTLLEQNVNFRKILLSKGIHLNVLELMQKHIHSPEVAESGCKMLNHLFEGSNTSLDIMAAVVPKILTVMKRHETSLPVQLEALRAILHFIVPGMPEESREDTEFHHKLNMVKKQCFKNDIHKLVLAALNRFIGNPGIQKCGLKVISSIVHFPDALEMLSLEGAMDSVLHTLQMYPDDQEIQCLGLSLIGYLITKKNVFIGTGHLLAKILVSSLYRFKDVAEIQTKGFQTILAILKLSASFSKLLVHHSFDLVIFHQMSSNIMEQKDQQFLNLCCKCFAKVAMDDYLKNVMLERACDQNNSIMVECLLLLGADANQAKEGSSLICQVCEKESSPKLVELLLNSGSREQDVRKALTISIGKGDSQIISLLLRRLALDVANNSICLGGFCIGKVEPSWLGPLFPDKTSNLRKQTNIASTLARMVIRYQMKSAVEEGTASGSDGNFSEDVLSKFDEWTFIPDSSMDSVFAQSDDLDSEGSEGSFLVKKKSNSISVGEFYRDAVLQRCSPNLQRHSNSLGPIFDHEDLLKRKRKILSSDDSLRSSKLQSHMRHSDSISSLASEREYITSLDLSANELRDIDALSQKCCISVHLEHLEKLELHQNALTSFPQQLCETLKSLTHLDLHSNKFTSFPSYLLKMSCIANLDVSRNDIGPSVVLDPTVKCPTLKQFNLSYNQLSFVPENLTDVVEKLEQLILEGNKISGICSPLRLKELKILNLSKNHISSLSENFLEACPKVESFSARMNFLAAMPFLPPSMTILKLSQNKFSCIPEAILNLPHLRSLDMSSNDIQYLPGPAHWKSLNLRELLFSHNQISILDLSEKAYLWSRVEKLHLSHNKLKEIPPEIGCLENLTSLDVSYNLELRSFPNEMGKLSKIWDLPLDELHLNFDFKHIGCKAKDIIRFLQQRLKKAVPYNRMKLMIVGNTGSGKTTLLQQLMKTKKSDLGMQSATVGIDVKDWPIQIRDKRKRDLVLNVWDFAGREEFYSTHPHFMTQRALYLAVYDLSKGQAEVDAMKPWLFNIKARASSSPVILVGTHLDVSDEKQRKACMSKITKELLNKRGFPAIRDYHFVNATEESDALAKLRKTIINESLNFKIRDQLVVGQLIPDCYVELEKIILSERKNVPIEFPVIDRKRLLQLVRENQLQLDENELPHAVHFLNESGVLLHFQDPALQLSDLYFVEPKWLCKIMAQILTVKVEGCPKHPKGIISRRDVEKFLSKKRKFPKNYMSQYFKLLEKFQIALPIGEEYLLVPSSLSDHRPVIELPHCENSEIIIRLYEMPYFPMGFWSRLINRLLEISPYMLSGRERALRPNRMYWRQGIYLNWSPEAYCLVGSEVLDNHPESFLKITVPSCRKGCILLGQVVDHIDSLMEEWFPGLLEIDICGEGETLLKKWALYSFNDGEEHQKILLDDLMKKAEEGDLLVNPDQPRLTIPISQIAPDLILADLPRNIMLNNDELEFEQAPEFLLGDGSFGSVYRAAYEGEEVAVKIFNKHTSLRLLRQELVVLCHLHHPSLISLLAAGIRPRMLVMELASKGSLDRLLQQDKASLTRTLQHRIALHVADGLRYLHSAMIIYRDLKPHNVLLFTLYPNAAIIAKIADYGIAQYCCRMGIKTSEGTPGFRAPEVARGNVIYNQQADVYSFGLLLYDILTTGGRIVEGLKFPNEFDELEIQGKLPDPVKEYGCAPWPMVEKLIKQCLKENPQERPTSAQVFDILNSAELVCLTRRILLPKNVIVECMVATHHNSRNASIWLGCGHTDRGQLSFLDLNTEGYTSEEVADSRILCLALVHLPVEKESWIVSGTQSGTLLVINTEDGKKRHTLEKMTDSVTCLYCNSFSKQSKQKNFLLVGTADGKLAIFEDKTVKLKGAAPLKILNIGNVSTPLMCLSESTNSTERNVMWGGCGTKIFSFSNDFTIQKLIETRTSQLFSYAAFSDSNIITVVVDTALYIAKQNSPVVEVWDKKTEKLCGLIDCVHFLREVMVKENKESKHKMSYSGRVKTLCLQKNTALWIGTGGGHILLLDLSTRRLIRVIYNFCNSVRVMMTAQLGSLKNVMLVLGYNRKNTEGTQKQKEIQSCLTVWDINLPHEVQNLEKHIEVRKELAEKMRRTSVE
Method: 10 mM compound solution was prepared in DMSO. An 11-point, 3-fold dilution was performed, with highest concentration at 10 μM. A 10 mM compound DMSO solution was added to Labcyte LDV plate and the compound concentration of source plate was 10 mM. The 1 st compound concentration of Inter plate (Labcyte 384 well PP plate) was 4.938×10^−1 mM which was prepared by transferring 1.5 μL of 10 mM compound from source plate to 28.9 μL DMSO. The 2nd compound concentration of Inter plate was 1.829×10^−2 mM which was prepared by transferring 60 nL of 10 mM compound from source plate to 32.7 μL DMSO. The 3rd compound concentration of Inter plate was 6.774×10^−4 mM which was prepared by transferring 2.5 nL of 10 mM compound from source plate to 36.9 μL DMSO. 100 nL of reference compound was dispensed in column 1 for low control wells and 100 nL of DMSO in column 24 for high control wells. Compounds were dispensed to column 2 to 23 of assay plate and backfilled with DMSO to a total volume of 100 nL.
A 2×LRRK2 enzyme solution (final concentration 3 nM) was prepared in assay buffer (Tris-HCl pH8.0: 50 mM, MgCl2: 5 mM, EDTA: 1 mM, Brij-35: 0.01%, 2 mM DTT). A 2× substrate solution was prepared: LRRK2 tide substrate (final concentration 400 nM) and ATP (final concentration 25 μM) in assay buffer. 5 μL 2×LRRK2 enzyme solution was dispensed to each well in assay plate by Multidrop. Assay plate was spun at 1,000 rpm for 1 min and incubated for 15 min at 23° C. 5 μL 2×ATP/LRRKtide solution was dispensed to each well in assay plate by Multidrop. Assay plate was spun at 1,000 rpm for 1 min and incubated for 120 min at 23° C.
A 2× detection solution was prepared: Tb-pERM (pLRRKtide) antibody (final concentration 0.25 nM) and EDTA (final concentration 10 mM) in TR-FRET dilution buffer. 10 μL 2× detection solution was dispensed to each well in assay plate to stop kinase reaction by Multidrop. Assay plate was spun at 1,000 rpm for 1 min and incubate for 30 min at 23° C. Assay plate was then read on Envision configured for LanthaScreen® TR-FRET.

T1 sequence (Q5S007 whole entry): as above

Row | Structure (SMILES) | IC50 [1] [nM] | IC50 [2] [nM]
1 | C[C@@H]1C[C@H](n2c(Cn3ccc(NS(C)(=O)=O)n3)nc3cnc4ccc(C#N)cc4c32)CCO1 [Compound 4, N-(1-{[8-cyano-1-(2-methyloxan-4-yl)-1H-imidazo[4,5-c]quinolin-2-yl]methyl}-1H-pyrazol-3-yl)methanesulfonamide] | 458 | 0.888
2 | C[C@@H]1C[C@H](n2c(Cc3noc(N4CCC(O)C4)n3)nc3cnc4ccc(C#N)cc4c32)CCO1 (mixture of isomers) [Compound 12, 2-({5-[(3RS)-3-hydroxypyrrolidin-1-yl]-1,2,4-oxadiazol-3-yl}methyl)-1-[(2R,4R)-2-methyloxan-4-yl]-1H-imidazo[4,5-c]quinoline-8-carbonitrile] | 811 | 1.36
3 | C[C@@H]1C[C@H](n2c(Cc3cn(C4CN(S(C)(=O)=O)C4)nn3)nc3cnc4ccc(C#N)cc4c32)CCO1 [Compound 5, 2-{[1-(1-methanesulfonylazetidin-3-yl)-1H-1,2,3-triazol-4-yl]methyl}-1-[(2R,4R)-2-methyloxan-4-yl]-1H-imidazo[4,5-c]quinoline-8-carbonitrile] | 324 | 0.635
4 | C[C@@H]1C[C@H](n2c(Cc3n[nH]c(=O)o3)nc3cnc4ccc(C#N)cc4c32)CCO1 [Compound 7, 1-[(2R,4R)-2-methyloxan-4-yl]-2-[(5-oxo-4,5-dihydro-1,3,4-oxadiazol-2-yl)methyl]-1H-imidazo[4,5-c]quinoline-8-carbonitrile] | 466 | 1.49
5 | C[C@@H]1C[C@H](n2c(Cc3cnn(C4COC4)c3)nc3cnc4ccc(C#N)cc4c32)CCO1 [Compound 8, 1-[(2R,4R)-2-methyloxan-4-yl]-2-{[1-(oxetan-3-yl)-1H-pyrazol-4-yl]methyl}-1H-imidazo[4,5-c]quinoline-8-carbonitrile] | 618 | 6.47
6 | C[C@@H]1C[C@H](n2c(Cn3ccc(=O)c(C(=O)O)c3)nc3cnc4ccc(C#N)cc4c32)CCO1 [Compound 17, 1-({8-cyano-1-[(2R,4R)-2-methyloxan-4-yl]-1H-imidazo[4,5-c]quinolin-2-yl}methyl)-4-oxo-1,4-dihydropyridine-3-carboxylic acid] | 2950 | 2.88

From US20250066356A1, “LRRK2 INHIBITORS” (INTERLINE THERAPEUTICS, INC., priority 2022, published 2025)
